{
  "source": "paper PMC7496275",
  "about": "“Pentathiepins: A Novel Class of Glutathione Peroxidase 1 Inhibitors that Induce Oxidative Stress, Loss of Mitochondrial Membrane Potential and Apoptosis in Human Cancer Cells” (Chemmedchem, 2020)",
  "key": {"bovine erythrocyte GPx": {"biological_target": "T1, bovine erythrocyte GPx (Bos taurus, UniProt P00435)", "T1 construct": "180 μL of a bovine erythrocyte GPx1 solution (0.125 U/mL); purchased Sigma Aldrich (Taufkirchen, Germany); host or cells: bovine erythrocytes", "T1 sequence (P00435 1-205)": "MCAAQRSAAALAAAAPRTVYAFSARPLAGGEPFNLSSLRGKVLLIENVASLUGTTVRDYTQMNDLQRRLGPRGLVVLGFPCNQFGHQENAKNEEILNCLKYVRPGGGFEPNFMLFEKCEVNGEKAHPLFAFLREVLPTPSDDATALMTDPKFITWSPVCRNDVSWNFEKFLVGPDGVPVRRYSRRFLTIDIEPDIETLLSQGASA", "assay": "GPx enzyme activity assay (TBHP/GSH, GR/NADPH coupled)", "format": "biochemical", "procedure": "The ability of pentathiepins to inhibit the bovine erythrocyte GPx activity was assayed for by an established enzyme method, which is based on the GPx‐dependent reduction of tert‐butyl hydroperoxide (TBHP) by GSH, leading to the formation of GSSG, which is coupled to the reduction of GSSG back to GSH by glutathione reductase (GR) and the oxidation of NADPH to NADP^+[10] (Figure 1). Inhibition potencies of the compounds were ranked by their IC50 values; that is, concentration of the inhibitor at the inflection point in the sigmoidal log dose‐inhibition curve (Figure 4A), and are summarized for the pentathiepins and mercaptosuccinic acid (MSA) in Table 1.\nGPx enzyme activity assay: To evaluate if the various compounds could inhibit GPx1, an enzymatic assay monitoring the activity of the bovine erythrocyte GPx was used as described previously.33 Bovine erythrocyte GPx is highly homologous to the human GPx1 (homology of 87 %)34 but much more affordable. In this assay, GPx reduces tert‐butylhydroperoxide (TBHP) followed by oxidation of glutathione (GSH) to the disulfide (GSSG), which in turn is regenerated to GSH by glutathione reductase (GR) with the consumption of NADPH. To each well of a UV‐transparent 96‐well plate were added 180 μL of a bovine erythrocyte GPx1 solution (0.125 U/mL) and 30 μL of prospective inhibitor in different concentrations diluted in DMF and incubated under shaking for 15 min at room temperature. Then 30 μL of stock solutions of GSH (2.5 mM) and baker's yeast GR plus NADPH (2 U/mL; 2.0 mM) were added. All stock solutions were prepared in potassium phosphate buffer (50 mM, pH 7.4, EDTA 1.1 mM, Triton‐X 0.01 %). The reaction was started by addition of TBHP solution (5 mM), giving final concentrations of 0.075 U/mL bovine erythrocyte GPx, 0.2 U/mL GR, 0.25 mM GSH, 0.2 mM NADPH and prospective inhibitor concentrations between 0.2–100 μM. The reaction was followed by the rate of decreasing absorption of the NADPH at λ=340 nm, measured every 15 s for ca. 20 min. The GPx activity related to untreated control was imported into the GraphPad Prism 6.0 software and the IC50 values were calculated by estimating the inflection point of the sigmoidal log concentration‐activity curves."}, "[1]": {"assay": "Stability in GPx assay buffer with GSH by RP-HPLC", "format": "physicochemical", "procedure": "It has been reported that pentathiepins are instable in the presence of thiols such as GSH.20 Thus, the stability of a representative pentathiepin, 4, in the presence of GSH was studied first by APCI‐MS. Incubations of 4 in the presence of 10 mM GSH, a biologically relevant concentration, were monitored at 23 °C for a period up to 1 h. […] Next, the stability of 4 was studied by RP‐HPLC in the same buffer and with the same GSH concentration (0.25 mM) used in the GPx assay (see below). Over the course of a 70 min incubation a nearly 30 % loss of the pentathiepin (Figure S32) was observed. However, since the GPx assay is only run for 20 min, the direct reaction between 4 and GSH would only account for a ca. 10 % loss of pentathiepin under assay conditions.\nMelting points were determined with a Büchi Melting Point M‐565 or a Büchi 545 (Büchi, Flawil, CH), temperatures are uncorrected. ^1H NMR and ^13C NMR spectra were recorded either with a Bruker Avance II‐300 or an Avance II Ultrashield 400 MHz instrument. Chemical shifts δ are given in ppm and the solvent residual peak (CDCl3: ^1H, δ=7.27; ^13C, δ=77.0 and [D6]DMSO: ^1H, δ=2.50; ^13C, δ=40) was used as an internal standard with the quinoxaline derivatives while TMS was used for the indole derivatives. APCI‐MS (m/z) spectra were recorded on an Advion MS. […]"}, "bovine GPx1": {"biological_target": "T2, bovine GPx1 (Bos taurus, UniProt P00435)", "T2 construct": "180 μL of a bovine erythrocyte GPx1 solution (0.125 U/mL); purchased Sigma Aldrich (Taufkirchen, Germany); host or cells: bovine erythrocytes", "T2 sequence (P00435 1-205)": "T1 sequence (P00435 1-205)", "assay": "Jump-dilution experiments for reversibility of GPx1 inhibition", "format": "biochemical", "details": "30 min pre-incubation at 23 °C, 100-fold jump-dilution", "procedure": "No difference in the inhibitory activity of 4 after jump‐dilution (Figure 4B left, a) was observed compared to expected inhibition at 0.25 μM (Figure 4B left, 0.25 μM), evidence that GPx1 inhibition is reversible. […] This is consistent with findings that MSA can act as an irreversible inhibitor of GPx1.11 In further jump‐dilution experiments, we pre‐incubated both inhibitors with the assay concentrations of either GSH and TBHP (a, d) or GSH only (b, e), with (a–c) and without (d–f) GPx1 for 30 min.\nThe jump‐dilution experiments were carried out in a 96‐well plates at room temperature. To each well was added 75 μL of a 20 IU mL^−1 GPx stock‐solution followed by the addition of 3 μL of a 2.5 mM solution of 4 in DMF and 30 μL of a 2.5 mM solution of GSH in buffer or 30 μL of a 2.5 mM solution of GSH in buffer and 30 μL of a 5 mM solution of TBHP in water and 300 μL buffer. The plates were shaken for 30 min in the dark, then each well was diluted 100 fold into a second plate prepared for the GPx‐assay. The enzyme activity was immediately measured as described above."}},
  "data": [
    {"smiles": "CCOc1c2c(c3cnc4cc(C)c(C)cc4n13)SSSSS2", "note": "[Compound 4]", "values": [
      {"measurement": "IC50", "setting": "bovine erythrocyte GPx; 23 °C, n>3, 0.25 mM GSH, read-out: Enzyme inhibition IC50 (CI 95 %)", "value": 2.44, "unit": "µM"},
      {"measurement": "potency at inhibiting GPx1 compared to MSA", "setting": "bovine erythrocyte GPx; ratio of IC50 values", "value": "twice as potent as MSA"},
      {"measurement": "loss of the pentathiepin", "setting": "[1]; 0.25 mM GSH in GPx assay buffer, 70 min, 23 °C, RP-HPLC", "value": "~30", "unit": "%"},
      {"measurement": "loss of pentathiepin under assay conditions", "setting": "[1]; 0.25 mM GSH, 20 min GPx assay duration", "value": "ca. 10%"},
      {"measurement": "reversibility of GPx1 inhibition", "setting": "bovine GPx1", "value": "reversible"}
    ]}
  ]
}
